In patent US20170056380A1, “Systems, Methods, Techniques, and Compounds in Research and Treatment of Portal Hypertension and other Conditions” (priority 2014, published 2017):
Entries after “also recorded” stand apart in the source; their conditions may differ.

How the values were obtained:
eNOS = eNOS phosphorylation (Ser1177) and total eNOS by immunoblotting in sinusoidal endothelial cells; assay type: cell-based, rat
Experimental: (§1) Cell isolation and culture. Sinusoidal endothelial cells were isolated from male Sprague-Dawley rats (450-500 g) (Harlan, Indianapolis, Ind.). In brief, after in situ perfusion of the liver with 20 mg/100 mg pronase (Roche Molecular Biochemicals, Indianapolis, Ind.), followed by collagenase (Worthington Biochemical, Lakewood, N.J.), dispersed cell suspensions were removed from a layered discontinuous density gradient of 8.2 and 15.6% Accudenz (Accurate Chemical and Scientific, Westbury, N.Y.), further purified by centrifugal elutriation (18 ml/min flow), and were grown in medium containing 20% serum (10% horse/calf). The purity of endothelial cells was documented by their uptake of fluorescently labeled di-l-acetoacetylated low-density lipoprotein as described (21). Only primary sinusoidal endothelial isolates of >95% purity were used for study. Experiments were performed with cells frorrr a minimum three different isolations (for all experiments).
(§2) Immunoblotting, Immunoblotting was performed by using specified primary antibodies, including anti-eNOS antibody (1:1,000; BD Transduction Laboratories, San Jose, Calif.), anti-phospho-eNOS-Ser^1177 (1:1,000; BD Transduction Laboratories or Cell Signaling Technology), anti-phospho-Akt, anti-Akt (Cell Signaling Technology, Beverly, Mass.), and horseradish peroxidase-conjugated secondary antibody. Specific signals were visualized using enhanced chemiluminescence as per the manufacturer's instructions and were scanned and quantitated with standard software.
(§3) Animal model of liver injury and portal hypedension. Liver injury and portal hypertension were induced by performing bile duct ligation in 450- to 500-gram male retired breeder Sprague-Dawley rats as described in Liu and 20- to 25-gram male BALB/c mice. Briefly, bile duct ligation was performed by surgical isolation and ligation of the common bile duct. This model creates a portal-based fibrogenic response and portal hypertension 10-14 days after surgery (Liu). For study of injured sinusoidal endothelial cells, we used the rat model of bile duct ligation (10-14 days postsurgery); for in vivo study (primarily to conserve the use of active compound), we used the mouse model of bile duct ligation (examining portal pressure 4 wk postsurgery). In sham-operated rats or mice, laparotomy without isolation and section of the bile duct was performed. Studies were approved by the local Institutional Animal Care and Use Committees. Portal pressure measurement. Portal hypertension was induced in male BALB/c mice by bile duct ligation as above. Cicletanine (5 mg·kg^−1·day^−1) or vehicle was given by gavage as a single daily dose for 10 days before portal pressure measurement as described in Liue. In brief, mice were anesthetized, and an intravenous catheter (Becton Dickinson Vascular Access, Sandy, Utah) was introduced in the portal vein and secured with a silk tie. A calibrated low-pressure transducer (Digi-Med, Louisville, Ky.) was connected to the portal vein catheter, and portal pressure was recorded continuously using the Digi-Med Integrator 200 System (Digi-bled).

[1] = tested on: NO production in sinusoidal endothelial cells; experiment: NO measurement (nitrite in conditioned medium of sinusoidal endothelial cells); assay type: cell-based, rat
Experimental: as §1, §3
NO measurement. To assess NO production, we analyzed the release of nitrite, the stable breakdown product of NO, using a nitrite/nitrate assay kit (Cayman Chemicals, Ann Arbor, Mich.), following the manufacturer's instructions. Briefly, conditioned medium from sinusoidal endothelial cells with or without cicletanine treatment were loaded on a 96-well plate and mixed with both enzyme cofactor and nitrate reductase. After incubation at room temperature for 3 h, 100 μl Griess reagent mix were added to each well. After 10 more minutes at room temperature, the absorbance of each well was determined on a microplate reader at 540 nm, and the nitrite concentrations were deduced from a standard curve.

hepatic stellate cells = experiment: Collagen lattice assay (ET-1 stimulated stellate cell contraction, coculture with sinusoidal endothelial cells); assay type: cell-based, rat; details: 50 or 100 nM 2 h, then ET-1 10 nM; coculture on collagen lattices
Experimental: (§4) For coculture experiments, freshly isolated stellate cells and freshly isolated sinusoidal endothelial cells were isolated separately and mixed together on collagen-coated plates and cultured for 5 days. Sinusoidal endothelial cells were plated at a density of 200,000 cells/cm2, and stellate cells were at a density of 65,000 cells/cm2.
Collagen lattice assay. Contraction of hepatic stellate cells was performed as previously described with minor modifications (25). Briefly, individual wells of a 24-well culture dish were incubated with PBS containing 1% BSA (500 μl/well) for 1 h at 37° C. and then washed two times with PBS and allowed to air dry. Collagen gels were prepared by mixing 60% type I tail collagen (Upstate Laboratories), 10% 10×MEM (GIBCO), 10% 0.2 HEPES, and 20% DMEM (GIBCO) to make a final concentration of collagen of 2.4 mg/ml. The solution was added to the culture wells and incubated for 1 h at 37° C., and hepatic stellate cells and sinusoidal endothelial cells were isolated separately from normal rat livers and cocultured (each at a density of 100,000 cells/lattice) on collagen lattices for 5 days. Cells were changed to serum-free medium overnight, then exposed to cicletanine, and then stimulated with endothelin-1 (ET-1, 10 nM). Collagen lattices were released from their substrata, and gel contraction was measured from 0 to 30 min.

protein kinase G (PKG) = experiment: Phospho-VASP immunoblotting for PKG activity in stellate cells alone or cocultured with sinusoidal endothelial cells; assay type: cell-based, rat
Experimental: as §4, §2

[2] = tested on: bile duct-ligated (BDL) mice; experiment: Portal pressure measurement in bile duct-ligated and sham-operated mice; assay type: in vivo, BALB/c mice; details: 5 mg·kg−1·day−1 by gavage for 10 days
Experimental: as §3, with “In brief, mice were anesthetized, and an intravenous catheter (Becton Dickinson Vascular Access, Sandy, Utah) was introduced in the portal vein and secured with a silk tie.” left out

[3] = cicletanine 100 nM, normal sinusoidal endothelial cells
[4] = sinusoidal endothelial cells injured by bile duct ligation, 2 h

For `Cc1ncc2c(c1O)COC2c1ccc(Cl)cc1` (stereo not drawn) [cicletanine, 3-(4-chlorophenyl)-1,3-dihydro-7-hydroxy-6-methylfuro-(3,4-c) pyridine], the “phosphorylation of eNOS, dose dependence” value (eNOS; 50 or 100 nM, 2 h, normal sinusoidal endothelial cells) was “increased in a dose-dependent manner”, the “time after exposure of greatest eNOS phosphorylation” value (eNOS; cicletanine 100 nM, 0-4 h) was 1 h and the “eNOS phosphorylation at Ser1177” value (eNOS; [3]) was “stimulated; also recorded: increased”. The “total eNOS expression” value (eNOS; [3]) was “unchanged”, the eNOS phosphorylation (eNOS; [4]) was “restored eNOS phosphorylation to above basal levels” and the “dose dependence of effect on nitrite production” value ([1]; 50 or 100 nM, 2 h) was “dose dependent”. For the same compound, the “nitrite levels in conditioned medium” value ([1]; 2 h exposure, normal sinusoidal endothelial cells) was “significantly increased”, the nitrite production ([1]; cells transduced with adenovirus 24 h, then cicletanine 100 nM 2 h) was “stimulated” and the “time at which nitrite levels started to increase” value ([1]; cicletanine 100 nM, 0-4 h) was 30 min. For the same compound, the nitrite production [1, 4] was “increase”, the stellate cell contraction (hepatic stellate cells) was “inhibited stellate cell contraction in a dose-dependent manner” and the VASP phosphorylation (protein kinase G (PKG); stellate cells alone) was “did not alter”. For the same compound, the VASP phosphorylation (protein kinase G (PKG); stellate cells cocultured with sinusoidal endothelial cells) was “stimulated”, the portal pressure ([2]; BDL mice) was “significantly reduced” and the portal pressure ([2]; sham-operated mice) was “Slight and nonsignificant decreases”.
